Test results as given in PubChem BioAssay (NCI).
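A five-concentration, 48-hour dose response in 96-well plates underlies each endpoint, interpolated linearly between surrounding concentrations. GI50 marks 50% less growth. TGI: concentration producing complete growth inhibition.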

Legend:
Test in all cases: NCI tumour cell line growth inhibition, 48 h
786-0 renal = system: 786-0 renal
A498 renal = system: A498 renal
A549 NSCLC = system: A549 NSCLC
ACHN renal = system: ACHN renal
BT-549 breast = system: BT-549 breast
CAKI-1 renal = system: CAKI-1 renal
CCRF-CEM leukemia = system: CCRF-CEM leukemia
COLO 205 colon = system: COLO 205 colon
DU-145 prostate = system: DU-145 prostate
EKVX NSCLC = system: EKVX NSCLC
HCC-2998 colon = system: HCC-2998 colon
HCT-116 colon = system: HCT-116 colon
HCT-15 colon = system: HCT-15 colon
HL-60(TB) leukemia = system: HL-60(TB) leukemia
HOP-62 NSCLC = system: HOP-62 NSCLC
HOP-92 NSCLC = system: HOP-92 NSCLC
HS 578T breast = system: HS 578T breast
HT29 colon = system: HT29 colon
IGROV1 ovarian = system: IGROV1 ovarian
K-562 leukemia = system: K-562 leukemia
KM12 colon = system: KM12 colon
LOX IMVI melanoma = system: LOX IMVI melanoma
M14 melanoma = system: M14 melanoma
MALME-3M melanoma = system: MALME-3M melanoma
MCF7 breast = system: MCF7 breast
MDA-MB-231 breast = system: MDA-MB-231 breast
MDA-MB-435 = system: MDA-MB-435
MOLT-4 leukemia = system: MOLT-4 leukemia
NCI-H226 lung = system: NCI-H226 lung
NCI-H460 lung = system: NCI-H460 lung
NCI-H522 lung = system: NCI-H522 lung
NCI/ADR-RES ovarian = system: NCI/ADR-RES ovarian
OVCAR-3 ovarian = system: OVCAR-3 ovarian
OVCAR-4 ovarian = system: OVCAR-4 ovarian
OVCAR-5 ovarian = system: OVCAR-5 ovarian
OVCAR-8 ovarian = system: OVCAR-8 ovarian
PC-3 prostate = system: PC-3 prostate
RPMI-8226 leukemia = system: RPMI-8226 leukemia
RXF 393 renal = system: RXF 393 renal
SF-268 CNS = system: SF-268 CNS
SF-295 CNS = system: SF-295 CNS
SF-539 CNS = system: SF-539 CNS
SK-MEL-2 melanoma = system: SK-MEL-2 melanoma
SK-MEL-28 melanoma = system: SK-MEL-28 melanoma
SK-MEL-5 melanoma = system: SK-MEL-5 melanoma
SK-OV-3 ovarian = system: SK-OV-3 ovarian
SN12C renal = system: SN12C renal
SNB-19 CNS = system: SNB-19 CNS
SNB-75 CNS = system: SNB-75 CNS
SR leukemia = system: SR leukemia
SW-620 colon = system: SW-620 colon
T-47D breast = system: T-47D breast
TK-10 renal = system: TK-10 renal
U251 CNS = system: U251 CNS
UACC-257 melanoma = system: UACC-257 melanoma
UACC-62 melanoma = system: UACC-62 melanoma
UO-31 renal = system: UO-31 renal

C/C(=C(/c1ccc(O)cc1)c1ccc(OCCN2CCCCCC2)cc1)c1ccccc1
GI50 (786-0 renal): 27.1 µM | TGI (786-0 renal): > 100 µM | GI50 (A498 renal): > 100 µM | TGI (A498 renal): > 100 µM | GI50 (A549 NSCLC): > 100 µM | TGI (A549 NSCLC): > 100 µM | GI50 (ACHN renal): > 100 µM | TGI (ACHN renal): > 100 µM | GI50 (BT-549 breast): > 100 µM | TGI (BT-549 breast): > 100 µM | GI50 (CAKI-1 renal): 65.9 µM | TGI (CAKI-1 renal): > 100 µM | GI50 (CCRF-CEM leukemia): 76.2 µM | TGI (CCRF-CEM leukemia): > 100 µM | GI50 (COLO 205 colon): 17.9 µM | TGI (COLO 205 colon): 34.4 µM | GI50 (DU-145 prostate): > 100 µM | TGI (DU-145 prostate): > 100 µM | GI50 (EKVX NSCLC): > 100 µM | TGI (EKVX NSCLC): > 100 µM | GI50 (HCC-2998 colon): 34.1 µM | TGI (HCC-2998 colon): > 100 µM | GI50 (HCT-116 colon): 34.1 µM | TGI (HCT-116 colon): > 100 µM | GI50 (HCT-15 colon): 23.8 µM | TGI (HCT-15 colon): 69.9 µM | GI50 (HL-60(TB) leukemia): 26.5 µM | TGI (HL-60(TB) leukemia): > 100 µM | GI50 (HOP-62 NSCLC): > 100 µM | TGI (HOP-62 NSCLC): > 100 µM | GI50 (HOP-92 NSCLC): 61.8 µM | TGI (HOP-92 NSCLC): > 100 µM | GI50 (HS 578T breast): 60.7 µM | TGI (HS 578T breast): > 100 µM | GI50 (HT29 colon): 27.7 µM | TGI (HT29 colon): > 100 µM | GI50 (IGROV1 ovarian): > 100 µM | TGI (IGROV1 ovarian): > 100 µM | GI50 (K-562 leukemia): 22.7 µM | TGI (K-562 leukemia): > 100 µM | GI50 (KM12 colon): 83.8 µM | TGI (KM12 colon): > 100 µM | GI50 (LOX IMVI melanoma): 19.5 µM | TGI (LOX IMVI melanoma): 41.5 µM | GI50 (M14 melanoma): 35.5 µM | TGI (M14 melanoma): > 100 µM | GI50 (MALME-3M melanoma): 40.9 µM | TGI (MALME-3M melanoma): > 100 µM | GI50 (MCF7 breast): 0.0615 µM | TGI (MCF7 breast): > 100 µM | GI50 (MDA-MB-231 breast): > 100 µM | TGI (MDA-MB-231 breast): > 100 µM | GI50 (MDA-MB-435): > 100 µM | TGI (MDA-MB-435): > 100 µM | GI50 (MOLT-4 leukemia): 32.6 µM | TGI (MOLT-4 leukemia): > 100 µM | GI50 (NCI-H226 lung): > 100 µM | TGI (NCI-H226 lung): > 100 µM | GI50 (NCI-H460 lung): 38.2 µM | TGI (NCI-H460 lung): > 100 µM | GI50 (NCI-H522 lung): > 100 µM | TGI (NCI-H522 lung): > 100 µM | GI50 (NCI/ADR-RES ovarian): > 100 µM | TGI (NCI/ADR-RES ovarian): > 100 µM | GI50 (OVCAR-3 ovarian): > 100 µM | TGI (OVCAR-3 ovarian): > 100 µM | GI50 (OVCAR-4 ovarian): > 100 µM | TGI (OVCAR-4 ovarian): > 100 µM | GI50 (OVCAR-5 ovarian): > 100 µM | TGI (OVCAR-5 ovarian): > 100 µM | GI50 (OVCAR-8 ovarian): > 100 µM | TGI (OVCAR-8 ovarian): > 100 µM | GI50 (PC-3 prostate): 57.9 µM | TGI (PC-3 prostate): > 100 µM | GI50 (RPMI-8226 leukemia): 30.5 µM | TGI (RPMI-8226 leukemia): > 100 µM | GI50 (RXF 393 renal): 31.2 µM | TGI (RXF 393 renal): > 100 µM | GI50 (SF-268 CNS): > 100 µM | TGI (SF-268 CNS): > 100 µM | GI50 (SF-295 CNS): 93.3 µM | TGI (SF-295 CNS): > 100 µM | GI50 (SF-539 CNS): 61.3 µM | TGI (SF-539 CNS): > 100 µM | GI50 (SK-MEL-2 melanoma): > 100 µM | TGI (SK-MEL-2 melanoma): > 100 µM | GI50 (SK-MEL-28 melanoma): 42.9 µM | TGI (SK-MEL-28 melanoma): > 100 µM | GI50 (SK-MEL-5 melanoma): 66.1 µM | TGI (SK-MEL-5 melanoma): > 100 µM | GI50 (SK-OV-3 ovarian): > 100 µM | TGI (SK-OV-3 ovarian): > 100 µM | GI50 (SN12C renal): > 100 µM | TGI (SN12C renal): > 100 µM | GI50 (SNB-19 CNS): > 100 µM | TGI (SNB-19 CNS): > 100 µM | GI50 (SNB-75 CNS): > 100 µM | TGI (SNB-75 CNS): > 100 µM | GI50 (SR leukemia): 22 µM | TGI (SR leukemia): 69.6 µM | GI50 (SW-620 colon): 25.5 µM | TGI (SW-620 colon): 75.5 µM | GI50 (T-47D breast): 11.5 µM | TGI (T-47D breast): > 100 µM | GI50 (TK-10 renal): > 100 µM | TGI (TK-10 renal): > 100 µM | GI50 (U251 CNS): 69.9 µM | TGI (U251 CNS): > 100 µM | GI50 (UACC-257 melanoma): 48.2 µM | TGI (UACC-257 melanoma): > 100 µM | GI50 (UACC-62 melanoma): > 100 µM | TGI (UACC-62 melanoma): > 100 µM | GI50 (UO-31 renal): 57.5 µM | TGI (UO-31 renal): > 100 µM
